Data on three compounds can be found in patent US5061713A, “Analgesic oxazolopyridine compounds” (Science et Organization, priority 1989, dated 1991).

The test system of one test is writhing movements. Put plainly: analgesic activity, phenyl-p-benzoquinone writhing movements (technique derived from Siegmund). It counts as in vivo. The note with it: Mus musculus; mice, oral, 1 hour before i.p. phenyl-p-benzoquinone; counted 5th to 10th minute; read-out: ED50, the dose producing a 50% activity (% decrease in the number of writhing movements). As for the experimental part: The activity against pain was investigated in mice (23-25 g) according to a protocol derived from the technique described by SIEGMUND (SIEGMUND E.A., R. A. CADMUS & GOLU, J. Pharm. Exp. Ther. 119, 184, 1957). The mice, randomized in batches of 12 animals, received the treatment orally (excipient for the controls) 1 hour before the intraperitoneal injection of a 0.02% aqueous-alcoholic solution of phenyl-p-benzoquinone (Sigma). The writhing movements are counted between the 5th and 10th minute after injection.
The percentage activity obtained was evaluated for each dose (% decrease in the number of writhing movements in the treated animals relative to the controls). An ED50, the dose producing a 50% activity, was determined for each product.

The subject of the next test is edema. The test can be described thus: anti-inflammatory activity, acute inflammation induced by carrageenan in the rat hind foot (method of Winter). Format: in vivo. The note with it: rats, 1 hour before carrageenan, edema determined 3 hours after injection, read-out: ED30, the dose producing a 30% activity (percentage decrease in the mean edema). Here is the method: The anti-inflammatory potential of the compounds was investigated on a model of acute inflammation induced by the subcutaneous injection of a solution of carrageenan into the rat hind foot, according to a technique based on the method of WINTER, C.A., E. A. RISLEY and G. N. NUSS (Proc. Soc. Exp. Med. 111, 554, 1962). The rats (100-120 g), randomized in batches of 8, were treated (including the controls, which receive excipient) 1 hour before the local injection of a 0.5% suspension of carrageenan (Sigma type IV; 0.1 ml per rat). The edema is determined 3 hours after injection, by plethysmometric measurement (UGO BASILE water plethysomometer) of the volume of each of the hind feet (edema=volume of the inflamed foot-volume of the non-inflamed foot).
The percentage activity corresponds to the percentage decrease in the mean edema of the batch compared with the mean of the corresponding control batch. An ED30, the dose producing a 30% activity, was determined.
For orientation: Carrageenan injected into the paw causes an acute inflammation.

In the case of `CCCC(=O)c1ccnc2nc(-c3ccccc3)oc12` [Example 2, 2-PHENYL-7-BUTYRYLOXAZOLO[4,5-b]PYRIDINE], in the test with writhing movements, the ED50 (commonly the midpoint of the dose-response relation) is approximately 5 mg/kg.

Regarding `Fc1ccccc1-c1nc2ncccc2o1` [Example 6 of U.S. Pat. No. 4,038,396, 2-(2-fluorophenyl)oxazolo[4,5-b]pyridine], in the test on writhing movements, the ED50 was approximately 12 mg/kg. For the same compound, in the test with edema, the ED30 was 50 mg/kg.

For `CCCC(=O)c1ccnc2nc(-c3ccccc3F)oc12` [Example 6, 2-(2-FLUOROPHENYL)-7-BUTYRYLOXAZOLO[4,5-b]PYRIDINE], the ED50 in the test with writhing movements is approximately 8 mg/kg.
